# Results from patent publication US20160349268A1, “STEPWISE ASSEMBLED CAPTURE COMPOUNDS COMPRISING A CLEAVABLE FUNCTION AND METHOD FOR ISOLATING AND/OR CHARACTERIZING BIOMOLECULES OR BIOMOLECULE FRAGMENTS, IN PARTICULAR PROTEINS OR PROTEIN FRAGMENTS, OF COMPLEX MIXTURES” (CAPROTEC BIOANALYTICS GMBH, priority 2014, published 2016).
# Key:
# [1] = target: T1, 5-methylthioadenosine/S-adenosylhomocysteine nucleosidase (Escherichia coli, UniProt P0AF12); test: Click-and-cleave with proteins/lysate, nanoLC/MS2 protein quantification of gel slices; format: binding, E. coli K-12 strain; details: compound 2.5 μM, gel slice around 25 kDa
# T1 construct: prepared from the DH5a derivative of the E. coli K-12 strain; endogenous in cells; host or cells: E. coli K-12 DH5a lysate
# Method: (§1) Compound 11 (final concentration 2.5 μM) was incubated for 5 min at 4° C. with a lysate (final total protein concentration 5 mg/ml) prepared from the DH5a derivative of the E. coli K-12 strain in phosphate buffered saline (final volume 100 μl). In a so called competition control (designated “C” as opposed to “A” for CCMS assay without the competitor SAH) carried out side-by-side, S-adenosyl-L-homocysteine (SAH) (final concentration 250 μM) was added to the lysate before compound 11 to compete for the binding of the SAH selectivity function of 11 to SAH binding proteins such as S-adenosyl-L-methionine (SAM) dependent methyltransferases.
# (§2) The samples were irradiated with UV light (λmax=310 nm) for 5 min in the caproBox (caprotec bioanalytics, Berlin, Germany) at about 4° C. to activate the reactivity function of 11 and form the covalent cross-link to proteins leading to 11-protein conjugates. Due to the SAH selectivity function in 11. SAH binding proteins will be selectively cross-linked to 11 and this selective crosslink will be diminished or inhibited in the competition control “C”.
# (§3) The samples “A” and “C” were incubated with 250 μg 13 (CPT601, CCB 4, trans-cyclooctene (TCO) modified controlled pore glass (CPG). CPG-TCO beads), respectively, over night at 4° C. with rotation to keep the CPG beads (13) in suspension. During this time the 11-protein conjugates covalently bound to 13 by the TCO-tetrazine click reaction to form 13-11-protein conjugates. Selective binding of 11-protein conjugates to 13 was shown by taking 5 μl samples of “A” and “C”, respectively, before and after incubation with 13 and incubating these samples with 18 (final concentration 10 μM, CPT533. Probe 3, TCO-TAMRA) for 15 min at room temperature. Formed by the TCO-tetrazine click reaction, the fluorescent 18-11-protein conjugates were detected as in-gel fluorescent bands after SDS-PAGE. In the samples taken after incubation with 13, less in-gel fluorescent bands (18-11-protein conjugates) were detected than in the samples taken before incubation with 13, showing that 11-protein conjugates had reacted with 13 to form 13-11-protein conjugates.
# (§4) The supernating solution was separated from the 13-11-protein conjugates after centrifugation in a table top centrifuge and the CPG beads containing the 13-11-protein conjugates were washed by re-suspending in fresh solution and removal of the supernatant after centrifugation (three times with 200 μl 4×SL Buffer, three times with 200 μl 50% acetonitrile).
# (§5) The washed CPG beads containing the 13-11-protein conjugates were divided into two aliquots, respectively, for “A” and “C”. One aliquot was incubated with 10 mM 2-nitrobenzhydrazide and 10 mM HCl in 10 μl 50% acetonitrile (final concentrations and volume) at room temperature for 1 h while keeping the CPG beads containing the 13-11-protein conjugates in suspension by rotation yielding proteins with attached cleaved off photo-reacted reactivity function. As a control, the second aliquot of the CPG beads containing the 13-11-protein conjugates was treated the same way side-by-side but without 2-nitrobenzhydrazide and HCl. The proteins in the solutions supernating (cleaved) the CPG beads were analyzed by SDS-PAGE (4-20% Tris-Glycine gradient gels, 15 well, 1.0 mm; Novex® life Technologes® Ref. EC60255BOX, 25 min run time at 300 V) followed by silver staining (ProteoSilver Silver Stain Kit, Sigma).
# (§6) Gel slices were cut out around 25 kDa in each gel lane corresponding to the molecular weight (height) of the specific gel lane marked by the red arrow in FIG. 13. The gel slices were treated with trypsin and the resulting peptides were analyzed by nanoLC/MS^2 (LTQ Orbitrap) followed by automatic software based protein identification and quantification (MaxQuant software package). […]
# [2] = target: T2, Ribosomal RNA small subunit methyltransferase G (Escherichia coli, UniProt P0A6U5); test: as above; format: binding, E. coli K-12 strain; details: Cleavage, compound 2.5 μM, gel slice around 25 kDa
# T2 construct: prepared from the DH5a derivative of the E. coli K-12 strain; endogenous in cells; host or cells: E. coli K-12 DH5a lysate
# Method: as §1, §2, §3, §4, §5, §6
# SAH binding protein = target: T3, SAH binding protein (Escherichia coli, UniProt P0AF12); test: Click-and-cleave with proteins/lysate, SDS-PAGE/silver stain; parameters: species or system E. coli K-12 strain; details: cleavage conditions (10 mM 2-nitrobenzhydrazide and 10 mM HCl in 50% acetonitrile)
# T3 construct: prepared from the DH5a derivative of the E. coli K-12 strain; endogenous in cells; host or cells: E. coli K-12 DH5a lysate
# Method: Compound 11 (final concentration 2.5 μM) was incubated for 5 min at 4° C. with a lysate (final total protein concentration 5 mg/ml) prepared from the DH5a derivative of the E. coli K-12 strain in phosphate buffered saline (final volume 100 μl). In a so called competition control (designated “C” as opposed to “A” for CCMS assay without the competitor SAH) carried out side-by-side, S-adenosyl-L-homocysteine (SAH) (final concentration 250 μM) was added to the lysate before compound 11 to compete for the binding of the SAH selectivity function of 11 to SAH binding proteins such as S-adenosyl-L-methionine (SAM) dependent methyltransferases. […]
# The samples “A” and “C” were incubated with 250 μg 13 (CPT601, CCB 4, trans-cyclooctene (TCO) modified controlled pore glass (CPG). CPG-TCO beads), respectively, over night at 4° C. with rotation to keep the CPG beads (13) in suspension. […] Formed by the TCO-tetrazine click reaction, the fluorescent 18-11-protein conjugates were detected as in-gel fluorescent bands after SDS-PAGE. In the samples taken after incubation with 13, less in-gel fluorescent bands (18-11-protein conjugates) were detected than in the samples taken before incubation with 13, showing that 11-protein conjugates had reacted with 13 to form 13-11-protein conjugates. […]
# [3] = Click-and-cleave without proteins/lysate (release of cleaved off photo-reacted reactivity function 15, LC-MS); format: physicochemical; details: for Area/a.u. of LC-MS EIC 249.10 peak at 1.75 min (cleaved off photo-reacted reactivity function 15): starting material bound to CPG-TCO beads 13
# Method: A solution of 100 μL 2.5 μM 11 (CPT727, Capture Compound bearing tetrazine as sorting function and a chemically cleavable photo-reactivity function) in phosphate buffered saline (PBS) was irradiated with UV light (λmax=310 nm) for 5 min at 4° C. in the caproBox (caprotec bioanalytics, Berlin. Germany) to activate the reactivity function yielding 12 (Scheme 12).
# The resulting solution was incubated with 2 mg 13 (CPT601, CCB 4, trans-cyclooctene (TCO) modified controlled pore glass (CPG), CPG-TCO beads) over night at 4° C. to covalently bind compound 12 to 13 by the TCO-tetrazine click reaction yielding 14 (Scheme 12). During this time, 13 was kept in suspension by rotation.
# Unbound 12 was removed by separating the supernating solution from 14 after centrifugation in a table top centrifuge and washing the solid 14 by re-suspending in fresh solution and removal of the supernatant after centrifugation (three times with 200 μl SL Buffer (50 mM Tris/HCl, 320 mM beta-mercaptoethanol, 2.5% sodium dodecylsulfate, 0.05% bromophenol blue, 10% glycerol, pH 6.8), three times with 200 μl 50% acetonitrile).
# The washed 14 was divided into two aliquots. One aliquot was incubated with 10 mM 2-nitrobenzhydrazide and 10 mM HCl in 10 μl 50% acetonitrile (final concentrations and volume) at room temperature for 1 h while keeping 14 in suspension by rotation yielding the cleaved off photo-reacted reactivity function 15 (Scheme 12). As a control, the second aliquot of 14 was treated the same way side-by-side but without 2-nitrobenzhydrazide and HCl. The solutions supernating (cleaved) 14 were analyzed by LC-MS.
# The same procedure was performed side-by-side using 16 (CPT634, Capture Compound bearing tetrazine as sorting function and non-cleavable photo-reactivity function) instead of 11.
# [4] = target: T4, tRNA (cmo5U34)-methyltransferase (Escherichia coli, UniProt P76290); test: Click-and-cleave with proteins/lysate, nanoLC/MS2 protein quantification of gel slices; format: binding, E. coli K-12 strain; details: Cleavage, compound 2.5 μM, gel slice around 25 kDa
# T4 construct: prepared from the DH5a derivative of the E. coli K-12 strain; endogenous in cells; host or cells: E. coli K-12 DH5a lysate
# Method: as §1, §2, §3, §4, §5, §6
# [5] = target: T5, tRNA (guanine-N(7)-)-methyltransferase (Escherichia coli, UniProt P0A8I5); test: as above; format: binding, E. coli K-12 strain; details: A (without competitor SAH), Cleavage; compound 2.5 μM, gel slice around 25 kDa
# T5 construct: prepared from the DH5a derivative of the E. coli K-12 strain; endogenous in cells; host or cells: E. coli K-12 DH5a lysate
# Method: as §1, §2, §3, §4, §5, §6
# [6] = A (without competitor SAH), Cleavage (10 mM 2-nitrobenzhydrazide, 10 mM HCl)
# [7] = A (without competitor SAH), no Cleavage
# [8] = C (competition control, SAH 250 μM), Cleavage
# [9] = C (competition control, SAH 250 μM), no Cleavage
# [10] = C (competition control, SAH 250 μM)
# T1 sequence (P0AF12 whole entry): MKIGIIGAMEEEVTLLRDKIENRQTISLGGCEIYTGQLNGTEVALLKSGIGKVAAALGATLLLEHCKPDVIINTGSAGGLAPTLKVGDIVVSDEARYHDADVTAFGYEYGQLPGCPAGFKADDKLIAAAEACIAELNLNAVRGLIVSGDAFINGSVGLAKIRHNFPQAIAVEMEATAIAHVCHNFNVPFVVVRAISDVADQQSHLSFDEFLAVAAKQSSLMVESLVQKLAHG
# T2 sequence (P0A6U5 whole entry): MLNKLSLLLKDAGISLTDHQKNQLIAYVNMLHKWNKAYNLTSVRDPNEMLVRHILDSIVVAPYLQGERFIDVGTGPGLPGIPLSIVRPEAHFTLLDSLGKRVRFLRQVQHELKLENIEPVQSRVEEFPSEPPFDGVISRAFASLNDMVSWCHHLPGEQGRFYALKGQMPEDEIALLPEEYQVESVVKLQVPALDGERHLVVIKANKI
# T3 sequence (P0AF12 whole entry): as the sequence (P0AF12 whole entry) above
# T4 sequence (P76290 whole entry): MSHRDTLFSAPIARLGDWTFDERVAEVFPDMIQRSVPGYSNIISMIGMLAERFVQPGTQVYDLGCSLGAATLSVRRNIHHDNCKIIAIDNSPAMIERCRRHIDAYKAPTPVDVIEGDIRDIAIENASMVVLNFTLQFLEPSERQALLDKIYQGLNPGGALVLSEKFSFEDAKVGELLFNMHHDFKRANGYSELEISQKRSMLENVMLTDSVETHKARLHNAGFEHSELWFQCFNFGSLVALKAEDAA
# T5 sequence (P0A8I5 whole entry): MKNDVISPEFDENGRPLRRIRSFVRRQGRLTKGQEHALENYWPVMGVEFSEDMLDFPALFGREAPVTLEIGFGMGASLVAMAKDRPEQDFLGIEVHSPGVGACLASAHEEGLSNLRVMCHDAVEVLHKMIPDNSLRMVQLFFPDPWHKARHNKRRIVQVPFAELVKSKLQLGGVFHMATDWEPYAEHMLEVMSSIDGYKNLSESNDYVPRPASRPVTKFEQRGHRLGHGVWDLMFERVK
Structure (SMILES),"Normalized protein intensities [1, 6]","Normalized protein intensities [1, 7]","Normalized protein intensities [1, 8]","Normalized protein intensities [1, 9]",Normalized protein intensities ([2]; A (without competitor SAH)),"Normalized protein intensities [2, 10]",gel band corresponding to a SAH binding protein after SDS-PAGE/silver stain (SAH binding protein),"fold higher intensity of 15 with 2-nitrobenzhydrazide and HCl than without ([3]; 10 mM 2-nitrobenzhydrazide, 10 mM HCl vs 50% acetonitrile only)","Area/a.u. of LC-MS EIC 249.10 peak at 1.75 min (cleaved off photo-reacted reactivity function 15) ([3]; cleavage condition 10 mM 2-nitrobenzhydrazide, 10 mM HCl in 50% acetonitrile) [a.u.]",Area/a.u. of LC-MS EIC 249.10 peak at 1.75 min (cleaved off photo-reacted reactivity function 15) ([3]; cleavage condition 50% acetonitrile) [a.u.],Normalized protein intensities ([4]; A (without competitor SAH)),"Normalized protein intensities [4, 10]",Normalized protein intensities [5]
Cc1nnc(-c2ccc(CN(CC(=O)NCCCCNc3ncnc4c3ncn4C3OC(CSCC[C@H](N)C(=O)O)C(O)C3O)C(=O)c3ccc(C4(C(F)(F)F)N=N4)cc3)cc2)nn1 (some centres unmarked) [Compound 16],7.2E+06,1.9E+05,7.9E+05,2.6E+05,1.5E+05,7.5E+04,absent,–,–,–,–,–,–
"Cc1nnc(-c2ccc(CN(CC(=O)NCCCCNc3ncnc4c3ncn4C3OC(CSCC[C@H](N)C(=O)O)C(O)C3O)C(=O)CC/C=N/N(C)C(=O)c3ccc(C4(C(F)(F)F)N=N4)cc3)cc2)nn1 (stereo partly drawn) [Compound 11, (2S)-2-amino-4-((3,4-dihydroxy-5-(6-(4-(2-((E)-N-(4-(6-methyl-1,2,4,5-tetrazin-3-yl)benzyl)-4-(2-methyl-2-(4-(3-(trifluoromethyl)-3H-diazirin-3-yl)benzoyl)hydrazono)butanamido)acetamido)butylamino)-9H-purin-9-yl)tetrahydrofuran-2-yl)methylthio)butanoic acid]",9.0E+07,4.0E+06,2.2E+06,1.0E+06,7.8E+05,3.6E+05,present,more than 50 fold,26722302,491625,1.6E+06,2.9E+05,4.0E+05
